Measurements reported in publication PMC3486884 (PLoS Pathogens, 2012).
Where two headings read alike, the source gives them in different places.

System: influenza virus (strain A/Puerto Rico/8/34/H1N1 depicted PR8)
Settings: n=2

| Structure (SMILES) | relative infection (0.1 µM) | relative infection (0.3 µM) | relative infection (0.9 µM) | relative infection (2.8 µM) | relative infection (8.3 µM) | relative infection (25.0 µM) |
| --- | --- | --- | --- | --- | --- | --- |
| O=C(Nc1ccc([N+](=O)[O-])cc1Cl)c1cc(Cl)cc(Cl)c1O [TVB-1326] | 1.02 | 0.94 | 0.90 | 0.78 | 0.68 | 0.01 |
| O=C(Nc1ccc([N+](=O)[O-])cc1Cl)c1cc(Cl)ccc1OCCOc1ccccc1 [TVB-1329] | 0.99 | 0.98 | 1.04 | 0.99 | 0.69 | 0.04 |
| O=C(Nc1ccc([N+](=O)[O-])cc1Cl)c1ccccc1O [TVB-1332] | 1.04 | 1.06 | 1.04 | – | 0.02 | 0.00 |
| CS(=O)(=O)c1ccc(NC(=O)c2cc(Cl)ccc2O)c(Cl)c1 [TVB-1338] | 0.81 | 0.81 | 0.78 | 0.82 | 0.78 | – |
